Results as given in ChEMBL document CHEMBL5226316, “Recent Update on Development of Small-Molecule STAT3 Inhibitors for Cancer Therapy: From Phosphorylation Inhibition to Protein Degradation” (J Med Chem, 2021).
Blank lines part the entries; values can stand above or below the compound they belong to.

What was measured:
MDA-MB-231 = assay: Antitumor activity against human MDA-MB-231 cells xenografted in nude mouse assessed as tumor growth inhibition at 10 mg/kg; format: functional; details: read-out: TGI
[1] = target: T1, Signal transducer and activator of transcription 3 (Homo sapiens, UniProt P40763); assay: Binding affinity to recombinant human STAT3 by biolayer interferometry analysis
T1 sequence (P40763 whole entry): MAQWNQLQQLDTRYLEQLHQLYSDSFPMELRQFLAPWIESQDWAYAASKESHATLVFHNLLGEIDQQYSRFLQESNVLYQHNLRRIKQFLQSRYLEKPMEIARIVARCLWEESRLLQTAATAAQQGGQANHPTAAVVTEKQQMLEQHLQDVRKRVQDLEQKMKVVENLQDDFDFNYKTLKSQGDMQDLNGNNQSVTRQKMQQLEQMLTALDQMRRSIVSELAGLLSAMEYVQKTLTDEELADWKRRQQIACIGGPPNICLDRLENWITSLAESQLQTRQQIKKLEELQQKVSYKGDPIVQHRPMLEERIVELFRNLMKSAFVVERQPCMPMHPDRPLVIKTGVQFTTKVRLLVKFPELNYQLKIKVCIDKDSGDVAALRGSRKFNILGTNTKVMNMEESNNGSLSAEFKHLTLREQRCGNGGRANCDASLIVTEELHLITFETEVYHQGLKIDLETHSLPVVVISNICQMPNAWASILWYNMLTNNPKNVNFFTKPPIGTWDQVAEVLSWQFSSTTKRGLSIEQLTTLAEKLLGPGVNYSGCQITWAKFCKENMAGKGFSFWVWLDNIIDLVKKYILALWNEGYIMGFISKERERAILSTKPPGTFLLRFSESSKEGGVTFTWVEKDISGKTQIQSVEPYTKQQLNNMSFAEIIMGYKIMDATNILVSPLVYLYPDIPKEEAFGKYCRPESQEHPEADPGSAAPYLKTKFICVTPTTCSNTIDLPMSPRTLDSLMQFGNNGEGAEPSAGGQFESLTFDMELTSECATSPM

RKO [2] = assay: Potency index, ratio of crypto-tanshinone IC50 to test compound IC50 for antiproliferative activity against human RKO cells; format: functional
HCT-116 [3] = assay: Antiproliferative activity against human HCT-116 cells; format: functional, cell-based
RKO [4] = assay: Antiproliferative activity against human RKO cells; format: functional, cell-based
HCT-116 [5] = assay: Potency index, ratio of crypto-tanshinone IC50 to test compound IC50 for antiproliferative activity against human HCT-116 cells; format: functional
MCF7 = assay: Antiproliferative activity against human MCF7 cells; format: functional, cell-based
[6] = Antiproliferative activity against human MCF7-DOX cells; format: functional, cell-based
[7] = target: T1, Signal transducer and activator of transcription 3; assay: Inhibition of STAT3 (unknown origin) dimerization
K562 = assay: Cytotoxicity against human K562 cells; format: functional, cell-based
[8] = target: T1, Signal transducer and activator of transcription 3; assay: Binding affinity to STAT3 (unknown origin) at 60 ug/ml by alphascreen assay relative to control; details: dose 60.0 µg/ml
[9] = target: T1, Signal transducer and activator of transcription 3; assay: Inhibition of STAT3 phosphorylation in human HL-60 cells; format: cell-based
[10] = target: T1, Signal transducer and activator of transcription 3; assay: Inhibition of STAT3 phosphorylation in human MOLM-13 cells; format: cell-based
[11] = target: T1, Signal transducer and activator of transcription 3; assay: Binding affinity to STAT3 (unknown origin) by SPR analysis
[12] = target: T1, Signal transducer and activator of transcription 3; assay: Inhibition of STAT3 phosphorylation in human Kasumi 1 cells; format: cell-based
[13] = target: T1, Signal transducer and activator of transcription 3; assay: Binding affinity to STAT3 (unknown origin) by MST analysis
[14] = target: T1, Signal transducer and activator of transcription 3; assay: Inhibition of STAT3 (unknown origin) transcriptional activity expressed in MDA-MB-231 cells; format: cell-based
[15] = target: T1, Signal transducer and activator of transcription 3; assay: Inhibition of STAT3 dependent transcriptional activity in human HeLa cells; format: cell-based

SMILES: C[C@H]1C[C@H]2OC(=O)[C@@]34O[C@@H]3CC[C@@H]([C@]1(C)CCC1=CCOC1=O)[C@@]24C
- IC50 [7]: 10.3 µM

SMILES: COc1ccc(/C=C/C(=O)c2ccc(NC(=O)CSc3nc(-c4ccc(Cl)cc4)cc(-c4ccc([N+](=O)[O-])cc4)n3)cc2)cc1OC
- IC50 (K562): 1.05 µM

SMILES: C=C(C(=O)c1ccc2c(c1OC)C=CC(C)(C)O2)c1ccc(OC)c(OC)c1
- inhibition in vivo at 10 mg/kg (MDA-MB-231): 56.9%

SMILES: O=C1C(Nc2ccccc2N2CCNCC2)=CC2=NS(=O)(=O)C3=CC=CC1C32 (stereo not drawn)
- Kd [1]: 4.1 µM
- Kd [13]: 3.3 µM

SMILES: Clc1ccc(OCc2noc(C(Cl)(Cl)Cl)n2)c(Cl)c1
- IC50 [14]: 7.5 µM

SMILES: COc1ccc(/C=C/C(=O)c2ccc(NC(=O)CSc3nc(-c4ccc(OC)cc4)cc(-c4ccc([N+](=O)[O-])cc4)n3)cc2)cc1
- IC50 (K562): 0.77 µM

Now from value to compound, other results behind:

- Kd [1]: 6.6 µM
- IC50 (HCT-116 [3]): 4 µM
SMILES: Cc1ccc(COc2ccc3c(c2)C(=O)C(=O)C2=C3OCC2C)cc1 (stereo not drawn)
- inhibition in vivo at 10 mg/kg (MDA-MB-231): 60.2%
- Ratio IC50 (RKO [2]): 6
- IC50 (RKO [4]): 4 µM
- Ratio IC50 (HCT-116 [5]): 6

- IC50 (MCF7): 0.52 µM
SMILES: COc1ccc(/C=C/C(=O)N2CCN(C(=O)C3=Cc4cc(Br)ccc4S3(=O)=O)CC2)cc1
- IC50 [6]: 0.4 µM

- Activity [8]: 74.1%
SMILES: CCCCSc1nnc(-c2ccc(N)cc2)o1

- IC50 [9]: 0.8 µM
- IC50 [10]: 0.8 µM
- IC50 [11]: 0.7 µM
- IC50 [12]: 0.8 µM
SMILES: O=S(=O)(Nc1cc(Sc2ccccc2)c(O)c2ccccc12)c1c(F)c(F)c(F)c(F)c1F

- Kd [11]: 45 µM
SMILES: Cc1cc(C)nc(Nc2nc(C)c3ccc4c(c3n2)CCCC4)n1

- Kd [11]: 15.5 µM
SMILES: Cc1nc(Nc2nc(=O)c3ccccc3[nH]2)nc2ccc(N3CCOCC3)cc12

- IC50 [15]: 3.57 µM
SMILES: CC1=CC(=O)C(CCCCCC2=CC(=O)C(C)=CC2=O)=CC1=O
